We go through 1 compound from PMC12101129, “An optimized CYP3A4-activatable fluorogenic sensor for in situ functional imaging and multi-dimensional inhibitor assessment” (Chemical Science, 2025).

The test system of one series is CYP3A4. In words: Liver organ imaging in the presence of CYP3A4 inhibitor. Also noted: species or system mice. The settings on record: male, C57BL/6J, mouse, isolated liver tissue, probe NCN (50 µM); read-out: residual activity of hepatic CYP3A4. On the procedure: dose group (CCl4-L, 0.15%), and CCl4 high dose group (CCl4-H, 0.3%). CCl4 was dissolved in vegetable oil and administered via intraperitoneal injection. After that, mice were fasted and allowed to drink water freely. After 18 h, blood samples were collected to determine the level of ALT and AST, while liver tissues were collected and washed with PBS. Then, the liver tissues were soaked 30 min in a solution containing NCN (50 μM, 5 mL) for fluorescent imaging. After organ imaging, the tissues were ground, and centrifuged, and the supernatant was diluted with 10-fold acetonitrile to precipitate the protein. After centrifugation again, the supernatant was determined to quantify the level of HNCN.
1.15. Bio-safety assessment of NCN in healthy mice
Sixteen C57BL/6J mice (8 males and 8 females, 6 weeks) were randomly assigned into two groups (4 males and 4 females). All mice were subjected to adaptive feeding for 7 d before the experiment. […] Mice organs were weighed and the organ index was calculated, and hematoxylin and eosin (H&E) stains were provided by Shanghai Ruibaohe Biotechnology Co., Ltd. […]
After that, the liver tissues were removed, and fluorescence imaging of the liver was performed using VISQUE Invivo Smart-LF. […]
quantify the levels of HNCN. […]
fluorescence intensity of the control (solvent only)) × 100%. […]

The next series deals with CYP3A. In words: CYP3A inhibition assay in mouse liver microsomes. The class given is biochemical. The settings on record: MLMs. (Liver microsomes are vesicles of endoplasmic reticulum, rich in cytochrome P450 enzymes.)

Turning to `CC(=O)N1CCN(c2ccc(OCC3COC(Cn4ccnc4)(c4ccc(Cl)cc4Cl)O3)cc2)CC1` (centres unmarked) [KCZ, ketoconazole], the activity at 1 h, 1 µM in the series with CYP3A4 is about 20%. Further, […] corresponded to half-maximal inhibition in the series with CYP3A (IC50).

The IC50 is the concentration that inhibits the measured activity by half. Low values mean greater potency, high ones weaker potency.
